Reference: patent US20220232861A1, “ZINC COMPOUNDS IN FOOD IMMERSION APPLICATIONS” (SAFE FOODS CORPORATION, priority 2019, published 2022)
Like-named read-outs stand apart in the source and are kept apart here.

Tests used:
Aerobic plate count [1] = details: Example 4; for Aerobic plate count: drums dipped 10 s, drip 60 s, control 7.9; for APC result versus control, in words: single treatments: 500 ppm zinc sulfate only (samples 6-10) or sulfuric acid pH 1.2 or less
Protocol: (§6) All rinsate samples collected were placed in a refrigerator overnight. The samples were analyzed for 3M Aerobic Plate Count (APC) Petrifilm™ (AOAC Official Method 990.12), and Enterobacteriaceae (EB) Petrifilm™ (AOAC Official Method 2003.01). The samples were recorded as counts, which were then converted to log10 CFU/mL for statistical analysis of the means.

Enterobacteriaceae [2] = details: Example 3; for Enterobacteriaceae: drums dipped 10 s, drip 60 s, control 2.8
Protocol: (§1) Drums (poultry) were purchased from a local retailer, frozen, and thawed for testing. The parts were allowed to sit at room temperature for 24 hours prior to testing. As a control, five drums (Sample IDs 1-5) were individually, aseptically rinsed (100 ml of rinsate).
(§2) Next, approximately 630 mL of 3,000 ppm zinc sulfate was added and manually agitated in 1 gallon of tap water in a 3-gallon bucket to yield a 500 ppm zinc sulfate solution. Five drums (Sample IDs 6-10) were fully submerged in the zinc sulfate solution, manually agitated for 10 seconds, then removed and allowed to drip for 60 seconds. The drums were individually, aseptically rinsed.
(§3) Next, 1 gallon of water and 4 ml of sulfuric acid were added to a bucket to yield a solution having a pH of 1.2. Five drums (Sample IDs 11-15) were fully submerged in the sulfuric acid solution, manually agitated for 10 seconds, then removed and allowed to drip for 60 seconds. The drums were individually, aseptically rinsed.
(§4) Lastly, 1 gallon of water and 630 mL of 3,000 ppm zinc sulfate/sulfuric acid solution were added to a bucket to yield a 500 ppm zinc sulfate/sulfuric acid solution having a pH of 1.2. Five drums (Sample IDs 16-20) were fully submerged in the zinc sulfate/sulfuric acid solution, manually agitated for 10 seconds, then removed and allowed to drip for 60 seconds. The drums were individually, aseptically rinsed.
(§5) All rinsate samples collected were placed in a refrigerator overnight. The samples were analyzed for 3M Aerobic Plate Count (APC) Petrifilm™ (AOAC Official Method 990.12), E. coli/Coliform (EC/CO) Petrifilm™ (AOAC Official Method 998.08), and Enterobacteriaceae (EB) Petrifilm™ (AOAC Official Method 2003.01). The samples were recorded as counts, which were then converted to log10 CFU/mL for statistical analysis of the means.

Aerobic plate count [3] = details: Example 3; for Aerobic plate count: drums dipped 10 s, drip 60 s, control 5.2
Protocol: as §1, §2, §3, §4, §5

Enterobacteriaceae [4] = details: Example 4; for Enterobacteriaceae: drums dipped 10 s, drip 60 s, control 4.9; for EB analysis result versus control, in words: single treatments: 500 ppm zinc sulfate only (samples 6-10) or sulfuric acid pH 1.2 or less
Protocol: as §6

Salmonella species = details: ppm = mg of zinc per L of treatment solution; cited from earlier work
[5] = 1.2 pH sulfuric acid alone, Sample IDs 11-15
[6] = 500 ppm zinc sulfate alone, Sample IDs 6-10

## O=S(=O)(O)O [sulfuric acid, reference compound]
Aerobic plate count [1]; [5]
  Aerobic plate count, reduction from control: 0.7 log10 CFU/ml
  Aerobic plate count: 7.2 log10 CFU/ml
Aerobic plate count [1]
  APC result versus control, in words: statistically significant reductions
Enterobacteriaceae [2]; [5]
  Enterobacteriaceae, reduction from control: 1.1 log10 CFU/ml
  Enterobacteriaceae: 1.7 log10 CFU/ml
Aerobic plate count [3]; [5]
  Aerobic plate count, reduction from control: 0.6 log10 CFU/ml
  Aerobic plate count: 4.6 log10 CFU/ml
Enterobacteriaceae [4]; [5]
  Enterobacteriaceae, reduction from control: 0.5 log10 CFU/ml
  Enterobacteriaceae: 4.4 log10 CFU/ml
Enterobacteriaceae [4]
  EB analysis result versus control, in words: statistically significant reductions

## O=S(=O)([O-])[O-].[Zn+2] [zinc sulfate]
Aerobic plate count [1]; [6]
  Aerobic plate count, reduction from control: 0.7 log10 CFU/ml
  Aerobic plate count: 7.2 log10 CFU/ml
Aerobic plate count [1]
  APC result versus control, in words: statistically significant microbial reduction
Enterobacteriaceae [2]; [6]
  Enterobacteriaceae, reduction from control: 1.1 log10 CFU/ml
  Enterobacteriaceae: 1.7 log10 CFU/ml
Aerobic plate count [3]; [6]
  Aerobic plate count, reduction from control: 0.7 log10 CFU/ml
  Aerobic plate count: 4.5 log10 CFU/ml
Enterobacteriaceae [4]; [6]
  Enterobacteriaceae, reduction from control: 1.9 log10 CFU/ml
  Enterobacteriaceae: 3.3 log10 CFU/ml
Enterobacteriaceae [4]
  EB analysis result versus control, in words: statistically significant microbial reduction
Salmonella species
  minimum inhibitory concentration (MIC): about 0.25 ppm
